Test results published in PubChem BioAssay AID330 (DTP/NCI, 2004).
Values joined by “and” are separate entries in the source; they are usually repeats but may differ in a detail not shown here. Equal values may be shown once. Toxic doses and inconclusive results are not listed. The calls were made as follows: active = survival T/C of 150% or more; inactive = T/C below 125% in these data.

System: P388 leukemia ip, CD2F1 mice, survival T/C
Assay: NCI In Vivo Anticancer Drug Screen. Data for tumor model P388 Leukemia (intraperitoneal) in CD2F1 (CDF1) mice
Settings: endpoint: median survival time, higher = longer survival
In short: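 Mice carrying the transplanted tumor received test compound or vehicle. Survival was recorded in each group, and the value is the treated-group measurement divided by that of the vehicle-treated control group.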

[1] = dose: 50.0 mg/kg/injection, schedule: Q01DX009 (ip), vehicle: saline with Tween-80
[2] = dose: 100.0 mg/kg/injection, schedule: Q01DX009 (ip), vehicle: saline with Tween-80
[3] = dose: 60.0 mg/kg/injection, schedule: Q01DX005 (ip), vehicle: saline with Tween-80
[4] = dose: 120.0 mg/kg/injection, schedule: Q01DX005 (ip), vehicle: saline with Tween-80
[5] = dose: 50.0 mg/kg/injection, schedule: Q01DX005 (ip), vehicle: saline with Tween-80
[6] = dose: 100.0 mg/kg/injection, schedule: Q01DX005 (ip), vehicle: saline with Tween-80
[7] = dose: 200.0 mg/kg/injection, schedule: Q01DX005 (ip), vehicle: saline with Tween-80
[8] = dose: 100.0 mg/kg/injection, schedule: Q01DX001 (ip), vehicle: saline with Tween-80
[9] = dose: 200.0 mg/kg/injection, schedule: Q01DX001 (ip), vehicle: saline with Tween-80
[10] = dose: 400.0 mg/kg/injection, schedule: Q01DX001 (ip), vehicle: saline with Tween-80
[11] = dose: 50.0 mg/kg/injection, schedule: Q01DX005 (ip), vehicle: Klucel (hydroxypropylcellulose) (HPC)
[12] = dose: 100.0 mg/kg/injection, schedule: Q01DX005 (ip), vehicle: Klucel (hydroxypropylcellulose) (HPC)

Measured: T/C

COc1ccc(CC(C(=O)NN)S(=O)(=O)NC(C)(C)C)cc1OC (stereo not drawn)
inactive: dose: 100.0 mg/kg/injection, schedule: Q04DX003 (ip), vehicle: Klucel (hydroxypropylcellulose) (HPC) 98 % of control | dose: 200.0 mg/kg/injection, schedule: Q04DX003 (ip), vehicle: Klucel (hydroxypropylcellulose) (HPC) 98 % of control | dose: 400.0 mg/kg/injection, schedule: Q04DX003 (ip), vehicle: Klucel (hydroxypropylcellulose) (HPC) 95 % of control

Oc1ccccc1C1=NC(c2ccccc2)NC(c2ccccc2)C1 (stereo not drawn)
inactive: [1] 88 % of control | [2] 93 % of control

O=C1CSCc2sccc21
inactive: [3] 94 % of control | [4] 106 % of control | dose: 240.0 mg/kg/injection, schedule: Q01DX005 (ip), vehicle: saline with Tween-80 101 % of control

COC(=O)C1(C2(C(=O)OC)NC(C)=C(c3ccccc3)C(=O)O2)NC(C)=C(c2ccccc2)C(=O)O1 (stereo not drawn)
inactive: [5] 97 % of control | [6] 100 % of control | [7] 91 % of control

C=CCc1ccc(Oc2cc(CC=C)cc(O)c2O)cc1
inactive: dose: 25.0 mg/kg/injection, schedule: Q01DX005 (ip), vehicle: Klucel + Tween-80 101 % of control | dose: 50.0 mg/kg/injection, schedule: Q01DX005 (ip), vehicle: Klucel + Tween-80 104 % of control | dose: 100.0 mg/kg/injection, schedule: Q01DX005 (ip), vehicle: Klucel + Tween-80 106 % of control | dose: 200.0 mg/kg/injection, schedule: Q01DX005 (ip), vehicle: Klucel + Tween-80 113 % of control

COc1ccc2c(c1OC(C)=O)-c1cc(OC(C)=O)cc3c1C(C2)N(C(=O)CBr)CC3 (stereo not drawn)
inactive: dose: 6.25 mg/kg/injection, schedule: Q01DX009 (ip), vehicle: saline with Tween-80 104 % of control | dose: 12.5 mg/kg/injection, schedule: Q01DX009 (ip), vehicle: saline with Tween-80 104 % of control

Clc1ccc(OCC(Cn2ccnc2)c2ccc(Cl)cc2)cc1 (stereo not drawn)
inactive: [1] 100 % of control | [2] 100 % of control

Cc1c(-c2ccccc2)oc(=O)c(Cl)c1N(C)c1ccccc1
inactive: [8] 94 % of control | [9] 99 % of control | [10] 91 % of control

NS(=O)(=O)c1ccc(NC(=S)Nc2ccccc2C(F)(F)F)cc1
inactive: dose: 50.0 mg/kg/injection, schedule: Q01DX009 (ip), vehicle: gum acacia 92 % of control | dose: 100.0 mg/kg/injection, schedule: Q01DX009 (ip), vehicle: gum acacia 109 % of control | dose: 200.0 mg/kg/injection, schedule: Q01DX009 (ip), vehicle: gum acacia 100 % of control

OC(c1ccc(F)cc1)(C1CC1)C1CC1
inactive: dose: 100.0 mg/kg/injection, schedule: Q01DX001 (ip), vehicle: saline + alcohol 98 % of control | dose: 200.0 mg/kg/injection, schedule: Q01DX001 (ip), vehicle: saline + alcohol 99 % of control | dose: 400.0 mg/kg/injection, schedule: Q01DX001 (ip), vehicle: saline + alcohol 101 % of control

COc1cc(C2c3cc4c(cc3OC3(N5CCCC5)CCCC23)OCO4)cc(OC)c1OC (stereo not drawn)
inactive: dose: 60.0 mg/kg/injection, schedule: Q01DX005 (ip), vehicle: Klucel (hydroxypropylcellulose) (HPC) 96 % of control | dose: 120.0 mg/kg/injection, schedule: Q01DX005 (ip), vehicle: Klucel (hydroxypropylcellulose) (HPC) 97 % of control | dose: 240.0 mg/kg/injection, schedule: Q01DX005 (ip), vehicle: Klucel (hydroxypropylcellulose) (HPC) 96 % of control

O=C1CCCCCCCC(=O)Nc2ccc3nc4ccccc4c(c3c2)SCCCCCCCCCCCCSc2c3ccccc3nc3ccc(cc23)N1
inactive: [5] 105 % of control | [6] 107 % of control | [7] 104 % of control

COC(=O)[C@H]1[C@H]2C[C@@H]3c4[nH]c5ccccc5c4CCN3C[C@H]2C[C@@H](OC(=O)c2cc(OC)c(OC)c(OC)c2)[C@@H]1OC
inactive: dose: 3.13 mg/kg/injection, schedule: Q01DX005 (ip), vehicle: saline with Tween-80 105 % of control and 123 % of control | dose: 6.25 mg/kg/injection, schedule: Q01DX005 (ip), vehicle: saline with Tween-80 118 % of control (2×) and 124 % of control | dose: 12.5 mg/kg/injection, schedule: Q01DX005 (ip), vehicle: saline with Tween-80 114 % of control and 118 % of control and 124 % of control | dose: 25.0 mg/kg/injection, schedule: Q01DX005 (ip), vehicle: saline with Tween-80 111 % of control and 94 % of control and 97 % of control

CC12CC3CC(C)(C1)CC(OCCN)(C3)C2
inactive: [3] 101 % of control | [4] 104 % of control

CCn1nc(C(=O)O)c(=O)c2cc3c(cc21)OCO3
inactive: dose: 50.0 mg/kg/injection, schedule: Q01DX009 (ip), vehicle: Klucel (hydroxypropylcellulose) (HPC) 96 % of control | dose: 100.0 mg/kg/injection, schedule: Q01DX009 (ip), vehicle: Klucel (hydroxypropylcellulose) (HPC) 97 % of control | dose: 200.0 mg/kg/injection, schedule: Q01DX009 (ip), vehicle: Klucel (hydroxypropylcellulose) (HPC) 98 % of control

O=C(CCl)N1C(=O)NC(c2ccc(Cl)cc2)(c2ccc(Cl)cc2)C1=O
inactive: dose: 5.0 mg/kg/injection, schedule: Q04DX003 (ip), vehicle: other 105 % of control | dose: 10.0 mg/kg/injection, schedule: Q04DX003 (ip), vehicle: other 116 % of control | dose: 20.0 mg/kg/injection, schedule: Q04DX003 (ip), vehicle: other 108 % of control and 123 % of control

CC[As](CCO)SC1CC(OC(=O)c2ccccc2)C(OC(=O)c2ccccc2)C(COC(=O)c2ccccc2)O1 (stereo not drawn)
inactive: dose: 25.0 mg/kg/injection, schedule: Q01DX009 (ip), vehicle: saline with Tween-80 110 % of control | dose: 50.0 mg/kg/injection, schedule: Q01DX009 (ip), vehicle: saline + alcohol 124 % of control | [1] 96 % of control | [2] 110 % of control

O=C(O)c1cc2c3ccccc3ncc2c2ccccc12
inactive: [8] 113 % of control | [9] 100 % of control | [10] 100 % of control

Cc1cc(NC(=O)C(=O)C(C#N)c2cccc(Cl)c2)no1 (stereo not drawn)
inactive: [5] 100 % of control | [6] 101 % of control | [7] 108 % of control

CCCCCNC(=O)c1csc(-c2csc(CCNC(C)=O)n2)n1
inactive: dose: 12.5 mg/kg/injection, schedule: Q01DX009 (ip), vehicle: distilled water + Tween-80 100 % of control | dose: 25.0 mg/kg/injection, schedule: Q01DX009 (ip), vehicle: distilled water + Tween-80 103 % of control | dose: 50.0 mg/kg/injection, schedule: Q01DX009 (ip), vehicle: distilled water + Tween-80 92 % of control | dose: 100.0 mg/kg/injection, schedule: Q01DX009 (ip), vehicle: distilled water + Tween-80 91 % of control

C=CC(=O)OCC(C)(C)C
inactive: dose: 50.0 mg/kg/injection, schedule: Q01DX005 (ip), vehicle: saline 99 % of control | dose: 100.0 mg/kg/injection, schedule: Q01DX005 (ip), vehicle: saline 98 % of control | dose: 200.0 mg/kg/injection, schedule: Q01DX005 (ip), vehicle: saline 116 % of control

O=C(O)C(=Cc1cccc2ccccc12)C(=O)O
inactive: dose: 25.0 mg/kg/injection, schedule: Q01DX005 (ip), vehicle: Klucel (hydroxypropylcellulose) (HPC) 89 % of control | [11] 100 % of control | [12] 89 % of control

CCc1nc(N)nc(N)c1-c1ccc(NCCCN)c([N+](=O)[O-])c1
inactive: dose: 30.0 mg/kg/injection, schedule: Q01DX005 (ip), vehicle: saline with Tween-80 106 % of control | [3] 108 % of control and 110 % of control

CC(C)(C)OC(=O)CN1C(=O)CCC1=O
inactive: [11] 99 % of control | [12] 100 % of control | dose: 200.0 mg/kg/injection, schedule: Q01DX005 (ip), vehicle: Klucel (hydroxypropylcellulose) (HPC) 106 % of control

C=C1C(=O)OC2C1C(OC(=O)/C(=C/C)CO)CC(C)(O)C1CC=C(C)C21 (stereo not drawn)
inactive: dose: 11.88 mg/kg/injection, schedule: Q01DX005 (ip), vehicle: Klucel (hydroxypropylcellulose) (HPC) 109 % of control | dose: 23.75 mg/kg/injection, schedule: Q01DX005 (ip), vehicle: Klucel (hydroxypropylcellulose) (HPC) 109 % of control | dose: 47.5 mg/kg/injection, schedule: Q01DX005 (ip), vehicle: Klucel (hydroxypropylcellulose) (HPC) 102 % of control

Cn1c(Cl)c(/C=N\Nc2ccccc2[N+](=O)[O-])c2ccccc21
inactive: dose: 25.0 mg/kg/injection, schedule: Q01DX001 (ip), vehicle: Klucel (hydroxypropylcellulose) (HPC) 90 % of control | dose: 50.0 mg/kg/injection, schedule: Q01DX001 (ip), vehicle: Klucel (hydroxypropylcellulose) (HPC) 87 % of control and 89 % of control | dose: 100.0 mg/kg/injection, schedule: Q01DX001 (ip), vehicle: Klucel (hydroxypropylcellulose) (HPC) 86 % of control and 90 % of control | dose: 200.0 mg/kg/injection, schedule: Q01DX001 (ip), vehicle: Klucel (hydroxypropylcellulose) (HPC) 87 % of control and 88 % of control
